Drawing on ChEMBL document CHEMBL1133033, “Targeting the dimerization interface for irreversible inhibition of HIV-1 protease” (Bioorg Med Chem Lett, 2000), this text covers K inact and Vinact for one molecule.

Positions of bridges follow the written chain, without caps; N, C: chain ends. Non-standard residues stand in square brackets, D forms with d. Residues, ends and D or L forms follow the SMILES beside them. Chains are numbered I, II in the order given. ξ: configuration not given here. *: point of attachment. S(3-COOH-4-NO2-phenyl) = O=C(O)c1cc(S*)ccc1[N+](=O)[O-]; C16 diacid = O=C(O)CCCCCCCCCCCCCCC(=O)*; Thr(3ξ) = CC(O)[C@H](N)C(=O)O; ξP = O=C(O)C1CCCN1

Assay [1] deals with Human immunodeficiency virus type 1 protease (Human immunodeficiency virus 1) (UniProt Q72874). The experiment in a line: Inhibitory concentration of compound resulting in half-maximal inactivation of HIV-1 protease.
Assay [2] shares this target. Briefly: Maximal inactivation rate of compound tested against HIV-1 protease.

Turning to `CC[C@H](C)[C@H](NC(=O)[C@H](CCC(N)=O)NC(=O)C1CCCN1C(=O)CCCCCCCCCCCCCCC(=O)N[C@@H](CO)C(=O)N[C@H](C(=O)N[C@@H](CC(C)C)C(=O)N[C@@H](CC(N)=O)C(=O)N[C@@H](CSSc1ccc([N+](=O)[O-])c(C(=O)O)c1)C(=O)O)[C@@H](C)O)C(=O)N[C@H](C(=O)N[C@@H](CC(C)C)C(=O)N[C@@H](Cc1c[nH]c2ccccc12)C(=O)O)C(C)O` (some centres not stated) (I: [ξP]QI[Thr(3ξ)]LW-OH / II: STLNC(S(3-COOH-4-NO2-phenyl))-OH; linker I:N-II:N via C16 diacid), the K inact in assay [1] amounted to 3.7 µM. This molecule also gave a Vinact in assay [2] of 0.012 min⁻¹.
